Test results taken from patent EP4538262A1, “COCRYSTALS OF VORASIDENIB” (SANDOZ AG, priority 2023, dated 2025).

What was measured:
[1] = in phosphate buffer pH 6.8 + 0.003% Tween 80, 10% methanol, 25 °C
[2] = Moisture sorption isotherm (DVS); format: physicochemical; settings: between 10 to 90 % RH, RH step of 5% RH
Experimental: The moisture sorption isotherms were recorded with a SPS-11 moisture sorption analyzer (MD Messtechnik, Ulm, Germany). […] The equilibrium condition for each step was set to a mass constancy of ±0.002 % over 40 min.

Question: With CC(Nc1nc(NC(C)C(F)(F)F)nc(-c2cccc(Cl)n2)n1)C(F)(F)F.O=C(O)CC(=O)O (centres unmarked) [Vorasidenib malonic acid cocrystal] as the compound, how does the “time of transformation to vorasidenib dihydrate” value [1] read?
Answer: Its value is “ten”.

Question: With C[C@@H](Nc1nc(N[C@H](C)C(F)(F)F)nc(-c2cccc(Cl)n2)n1)C(F)(F)F.C[C@@H](Nc1nc(N[C@H](C)C(F)(F)F)nc(-c2cccc(Cl)n2)n1)C(F)(F)F.O.O=C(O)/C=C/C(=O)O [vorasidenib fumaric acid cocrystal] as the compound, how does the DVS water content [2] read?
Answer: The DVS water content was “not more than 2.0 % by weight”.
